Assays:
[1] = system: constitutive and inducible NO synthase (cNO and iNO respectively), HSP70, and NF-kappa b-p65 factor; assay: Western blot of signal molecules from ulcer edge in the rat gastric ulcer model with Helicobacter pylori; format: in vivo, Sprague Dawley rats; settings: 7th day from ulcer induction; doses of 1 µg to 10 µg per kg of body weight daily for 5 days
Method: The study was carried out on 90 male Sprague Dawley rats (180-220 g) randomly subdivided into 9 groups (10 animals per group): • Group 1 - intact rats (saline solution) • Group 2 - modeled ulcer + saline solution • Group 3 (6 subgroups) - modeled ulcer + H-Glu-Asp-Gly-OH • Group 4 - modeled ulcer + Klacid antibiotic
Ulcer was modeled by three-time administration (in 4 hours) in the rat stomach of cysteamine-HCL (Aldrich, Milwannee, WI) by means of a probe in the dose of 25 mg per 100 g of body weight. The ulcer, approximately 28 mm^2 in size, appeared at the boundary between antral and fundal segments of the stomach 12 hours after the last administration. Simultaneously with the first administration of cysteamine-HCL a Helicobacter pylori culture (Curtin Matheson Scientific Inc, strain Cag J117, 100 microbial cells) was administered in the rat stomach through the same probe.
A means on the basis of the pharmaceutical composition comprising the studied peptide H-Glu-Asp-Gly-OH was administered subcutaneously in the dose of 1 µg per kg of animal body weight (group 3a), 2,5 µg per kg of body weight (group 3b) and 10 µg per kg of body weight (group 3c) in 0,5 ml of saline solution daily, for 5 days from the occurrence of the stomach ulcer. […]

[2] = system: mice embryonic fibroblasts (MEF+/+, knockout mice line LMNA); assay: Effect on Helicobacter pylori-induced mitochondrial damage in mouse embryonic fibroblasts (mito-GFP confocal microscopy); format: cell-based; settings: peptide 10 µM added 30 minutes before Helicobacter pylori (strain Cag J117), 7 hours incubation; compared to control
Method: A study of the effect of a pharmaceutical composition comprising the peptide H-Glu-Asp-Gly-OH as an active substance on molecular and cellular mechanisms of apoptosis was carried out on a wild type of mice embryonic fibroblasts (MEF+/+, knockout mice line LMNA). Cells were cultivated at 37°C in a damp incubation medium containing 5% CO2 in DMEM (Dulbecco's Modified Eagle's Medium, ICN Biomedicals) and 10% calf embryonic serum. Preliminary sorting of cells for passaging in a 1:3-1:5 ratio was performed using a mixture of 0.125% trypsin, 0.02M EDTA (ethylenediaminetetraacetic acid), 0.02% glucose dissolved in a phosphate buffer. Cells were passaged in a culturing medium for 5 days and then taken for the study.
On the 5th day after the beginning of passaging of the cells peptide H-Glu-Asp-Gly-OH was added in the culturing medium in the dose of 10 µM, and in 30 minutes the cells were taken for study. […]
The status of isolated mitochondria was evaluated using immunofluorescent confocal laser microscopy. […]
Confocal microscopy of mitochondria with optical density evaluation was carried out in an inverted confocal microscope Olympus Fluoview CM FV300-IX70 using an apochromatic lens 606 UPlan (Olympus). A 488 nm excitation wave of argon laser was used in each chamber to specify mito-GFP fluorescence that verifies the structure of mitochondria.

glutamyl-aspartyl-glycine [H-Glu-Asp-Gly-OH]
level of production of signal molecules (both NO synthase forms, HSP70, NF kappa b-p65) in the mucous membrane of the edge of the ulcer [1]: comparable with commonly normal indices
luminescence of mitochondrial GFP in terms of optical density values [2]: exceeded the control indices
